From ChEMBL document CHEMBL5316275 (J Med Chem, 2023)

Molecular target: Albumin (Homo sapiens, UniProt P02768)
Assay: Binding affinity to human serum albumin assessed as association constant measured after 18 hrs by equilibrium dialysis method

Chain of Albumin (P02768 whole entry): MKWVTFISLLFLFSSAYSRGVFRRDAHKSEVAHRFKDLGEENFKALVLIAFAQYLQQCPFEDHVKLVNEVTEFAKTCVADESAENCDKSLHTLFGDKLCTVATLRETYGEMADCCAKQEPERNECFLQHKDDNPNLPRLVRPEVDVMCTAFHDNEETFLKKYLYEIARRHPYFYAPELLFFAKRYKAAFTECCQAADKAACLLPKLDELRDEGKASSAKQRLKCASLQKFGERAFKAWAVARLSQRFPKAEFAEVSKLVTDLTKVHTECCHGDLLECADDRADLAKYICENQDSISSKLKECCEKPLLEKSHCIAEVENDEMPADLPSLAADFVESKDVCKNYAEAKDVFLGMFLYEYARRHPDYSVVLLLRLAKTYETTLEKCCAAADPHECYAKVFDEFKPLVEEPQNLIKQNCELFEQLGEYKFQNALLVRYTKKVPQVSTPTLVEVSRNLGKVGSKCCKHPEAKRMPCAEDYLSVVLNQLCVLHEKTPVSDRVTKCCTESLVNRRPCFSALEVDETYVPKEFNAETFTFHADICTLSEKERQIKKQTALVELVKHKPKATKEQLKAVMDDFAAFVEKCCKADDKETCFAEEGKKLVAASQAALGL

K | Structure (SMILES)
1.91 10^5/M | COC(=O)CC/C(C)=C/Cc1c(O)c2c(c(C)c1OC)COC2=O
0.83 10^5/M | COc1c(C)c2c(c(O)c1C/C=C(\C)CCC(=O)OCCN1CCOCC1)C(=O)OC2 [MYCOPHENOLATE MOFETIL]
